Values quoted from earlier work as cited in patent US20070119380A1, “Additive Composition for Feeding Aquaculture Animals and Feed Containing the Same” (priority 2003, published 2007).

How the values were obtained:
[1] = in whitefish flesh/muscle, fresh/wet sample
mice = conditions: interperitoneal and oral administration

Row | SMILES | minimal amount (flavor threshold value) to produce a recognizable sensation [1] | sub-lethal toxic effects (mice)
1 | Oc1c(Br)cc(Br)cc1Br [2,4,6-tribromophenol] | 10 ng/g | no sub-lethal toxic effects
2 | Oc1ccc(Br)cc1Br [2,4-dibromophenol] | 50 ng/g | 
3 | Oc1c(Br)cccc1Br [2,6-dibromophenol] | 0.1 ng/g | 
4 | Oc1ccccc1Br [2-bromophenol] | 10 ng/g | no sub-lethal toxic effects
5 | Oc1ccc(Br)cc1 [4-bromophenol] | 20 ng/g | 
